Results: PubChem BioAssay AID588661 (The Scripps Research Institute Molecular Screening Center, 2011)
Activity calls are given as the source filed them.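 The calls were made as follows: active = KLF5 protein level in colon cancer cells lowered or raised by 30% or more versus solvent-only cells; inactive = the rest.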

Assays:
[1] = target: Krueppel-like factor 5 (Homo sapiens) (UniProt Q13887); experiment: KLF5 protein abundance by immunoblot – western blot, chemiluminescence, SW620 colorectal cells, counter-screen for KLF5 inhibitor project, late-stage follow-up (AID 588661); settings: SW620 cells, KLF5 protein western blot, 24 h; at 10 µM; stronger effect = higher value
Sequence of Krueppel-like factor 5 (Homo sapiens) (Q13887 whole entry, looked up): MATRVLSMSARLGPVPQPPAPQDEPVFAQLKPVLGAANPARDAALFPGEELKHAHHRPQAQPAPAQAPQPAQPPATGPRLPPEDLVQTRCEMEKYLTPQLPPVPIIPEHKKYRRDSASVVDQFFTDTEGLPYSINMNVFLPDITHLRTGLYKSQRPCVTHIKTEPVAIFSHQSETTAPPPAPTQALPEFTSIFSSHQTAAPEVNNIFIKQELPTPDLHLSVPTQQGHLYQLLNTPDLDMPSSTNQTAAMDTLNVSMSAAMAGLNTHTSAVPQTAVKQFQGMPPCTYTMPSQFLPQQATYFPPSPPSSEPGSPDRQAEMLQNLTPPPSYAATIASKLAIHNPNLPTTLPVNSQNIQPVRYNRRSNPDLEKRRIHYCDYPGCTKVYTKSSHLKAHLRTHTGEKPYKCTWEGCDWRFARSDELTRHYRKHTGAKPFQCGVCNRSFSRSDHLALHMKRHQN

[2] = test system: SW620 cells, KLF5 protein western blot, 24 h; experiment: as above; settings: measured here: KLF5 protein fold change vs DMSO; at 10 µM

inhibition [1]: 7.48% (inactive)
SMILES: CN(C(=O)COC(=O)/C=C/c1cccc([N+](=O)[O-])c1)C1CCS(=O)(=O)C1 (configuration not stated)
signed fold change vs DMSO (negative = decrease) [2]: -1.08
